Values of other authors as cited in paper PMC9610285 (Pharmaceutics, 2022).

Conditions: cited from earlier work

For `C#CCN[C@@H]1CCc2ccccc21` [rasagiline, Rasagiline], the water solubility is listed as “poorly water-soluble”.
